Laboratory results published in PMC10035947, “Development of novel anilinoquinazoline-based carboxylic acids as non-classical carbonic anhydrase IX and XII inhibitors” (Journal of Enzyme Inhibition and Medicinal Chemistry, 2023).
pKi: −log10 of the molar value. Where two headings read alike, the source gives them in different places.

Columns and labels:
[1] = target: T1, hCA I (Homo sapiens, UniProt P00915); test: stopped flow CO2 hydrase assay; assay type: biochemical; conditions: mean from 3 assays
T1 construct: made in house
T1 sequence (P00915 whole entry): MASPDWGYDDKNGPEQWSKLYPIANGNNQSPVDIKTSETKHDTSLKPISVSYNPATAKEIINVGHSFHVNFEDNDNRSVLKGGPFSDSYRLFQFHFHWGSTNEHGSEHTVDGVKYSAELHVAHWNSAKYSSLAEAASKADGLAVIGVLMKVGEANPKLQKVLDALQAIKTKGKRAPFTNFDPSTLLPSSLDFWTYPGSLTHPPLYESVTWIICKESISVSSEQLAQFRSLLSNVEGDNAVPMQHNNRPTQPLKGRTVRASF
Description: (§1) Carbonic anhydrase inhibition assay
(§2) The carbonic anhydrase catalyzed CO2 hydration actions for the quinazoline-based […]
(§3) Photophysics stopped-flow, as described previously. The enzymes are recombinant proteins prepared in our lab. Phenol red (at a concentration of 0.2 mM) has been used as indicator, working at the absorbance maximum of 557 nm, with 20 mM Hepes (pH 7.5) as buffer, and 20 mM Na2SO4 (for maintaining constant the ionic strength), following the initial rates of the CA- […]
(§4) 1.7 to 17 mM for the determination of the kinetic parameters and inhibition constants. For each […]
(§5) initial velocity. The uncatalyzed rates were determined in the same manner and subtracted from the total observed rates. Stock solutions of inhibitor (0.1 mM) were prepared in distilled-deionized water and dilutions up to 0.01 nM were done thereafter with the assay buffer. Inhibitor and enzyme solutions were preincubated together for 15 min at room temperature prior to assay, in order to allow for the formation of the E-I complex. The inhibition constants were obtained by non-linear least-squares methods using PRISM 3 and the Cheng-Prusoff equation, and represent the mean from at least three different determinations.

[2] = target: T2, hCA IX (Homo sapiens, UniProt Q16790); test: stopped flow CO2 hydrase assay; assay type: biochemical; conditions: for Selectivity ratio II/IX: KI hCA II / KI hCA IX; for pKi: mean from 3 assays
T2 construct: made in house
Description: as §1, §2, §3, §4, §5

[3] = target: T3, hCA XII (Homo sapiens, UniProt O43570); test: stopped flow CO2 hydrase assay; assay type: biochemical; conditions: for Selectivity ratio I/XII: KI hCA I / KI hCA XII; for Selectivity ratio II/XII: KI hCA II / KI hCA XII; for pKi: mean from 3 assays
T3 construct: made in house
T3 sequence (O43570 25-354): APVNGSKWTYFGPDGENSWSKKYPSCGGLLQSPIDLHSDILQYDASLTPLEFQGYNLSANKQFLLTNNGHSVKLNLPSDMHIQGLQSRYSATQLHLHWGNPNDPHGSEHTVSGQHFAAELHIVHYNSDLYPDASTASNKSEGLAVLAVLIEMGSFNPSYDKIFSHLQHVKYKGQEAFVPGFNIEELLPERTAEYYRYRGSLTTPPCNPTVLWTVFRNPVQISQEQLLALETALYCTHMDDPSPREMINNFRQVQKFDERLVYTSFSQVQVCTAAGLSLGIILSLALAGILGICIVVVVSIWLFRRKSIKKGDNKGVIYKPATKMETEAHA
Description: as §1, §2, §3, §4, §5

[4] = target: T4, hCA II (Homo sapiens, UniProt P00918); test: stopped flow CO2 hydrase assay; assay type: biochemical; conditions: mean from 3 assays
T4 construct: made in house
Description: as §1
as §3, with “The carbonic anhydrase catalyzed CO2 hydration actions for the quinazoline-based carboxylic acid derivatives (6a-c, 7a-c and 8a-c) were assayed utilizing an instrument of Applied Photophysics” for “Photophysics”
as §5, with “1.7 to 17 mM for the determination of the kinetic parameters and inhibition constants. For each inhibitor at least six traces of the initial 5-10% of the reaction have been used for determining the initial” for “initial”

[5] = target: T2, hCA IX; conditions: cited from earlier work
[6] = target: T3, hCA XII; conditions: cited from earlier work

pKi [1] | Selectivity ratio I/IX ([2]; KI hCA I / KI hCA IX) | Selectivity ratio II/IX [2] | pKi [2] | Selectivity ratio I/XII [3] | Selectivity ratio II/XII [3] | pKi [3] | pKi [4] | melting point [°C] | SMILES | pKi [5] | pKi [6]
4.18 | 14.7 | 1.02 | 5.35 | 265.2 | 18.40 | 6.60 | 5.34 | > 300 | COc1ccc(-c2nc(Nc3ccc(C(=O)O)cc3)c3ccccc3n2)cc1 [8c, 4-((2–(4-Methoxyphenyl)quinazolin-4-yl)amino)benzoic acid] |  | 
< 4.00 |  | 2.72 | 4.50 |  | 178.75 | 6.32 | 4.07 | 244 to 246 | COc1ccc(-c2nc(Nc3cccc(C(=O)O)c3)c3ccccc3n2)cc1 [7c, 3-((2–(4-Methoxyphenyl)quinazolin-4-yl)amino)benzoic acid] |  | 

Continued, compound first:

SMILES | pKi [1] | Selectivity ratio I/IX ([2]; KI hCA I / KI hCA IX) | Selectivity ratio II/IX [2] | pKi [2] | Selectivity ratio I/XII [3] | Selectivity ratio II/XII [3] | pKi [3] | pKi [4] | melting point [°C] | pKi [5] | pKi [6]
Cc1c(NC(=O)Nc2cccc(C(=O)O)c2)oc2ccccc12 [I] |  |  |  |  |  |  |  |  |  | 6.10 | 5.64
Cc1cccc(-c2nc(Nc3cccc(C(=O)O)c3)c3ccccc3n2)c1 [7a, 3-((2-(m-Tolyl)quinazolin-4-yl)amino)benzoic acid] | < 4.00 |  | 0.89 | 4.53 | 20.8 | 5.42 | 5.32 | 4.59 |  |  | 
O=C(O)c1ccc(N/C=C/C(=O)c2ccc(F)cc2)cc1 [III] |  |  |  |  |  |  |  |  |  | 6.04 | 5.96
